The text below walks through data of patent publication US5053070A, “Pyrimidine derivatives, preparation processes thereof, herbicide containing the same, and herbicidal compositions containing the same along with other active ingredient” (Mitsui Toatsu Chemicals, Incorporated, priority 1988, dated 1991).

Holding throughout (format): in vivo
One assay deals with barnyardgrass. Put plainly: Upland foliar application test by mixed formulations (Test 7). As to conditions: Echinochloa crus-galli, 720 h, applied alone, 30th day, read-out: Herbicidal effects (%) Barnyardgrass Ea; for pest or weed control at 300 g/ha: 0.3 kg/ha; for pest or weed control at 1000 g/ha: 1 kg/ha. An outline of the steps:
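Foliar spray of two-compound mixed emulsion, diluted with water, at 5 l per are via ULV sprayer onto weeds at 2–3 leaf stage in upland soil pots, greenhouse. Effect observed 30 days after spraying. Measured mixture activity (Ea) compared with Colby expected value (Ec) derived from single-ingredient growth inhibition rates.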

In another assay the test system is redroot pigweed. Put plainly: Upland foliar application test by mixed formulations, concentration gradient (Test 8). As to conditions: Amaranthus retroflexus, 960 h, applied alone, 40th day, read-out: Herbicidal effects Redrood pigweed Ea; for pest or weed control at 100 g/ha: 1 g/a; for pest or weed control at 200 g/ha: 2 g/a. As for the experimental part: (§1) Resin-made 1/10,000-are pots were filled with the soil of an upland field. Redroot pigweed and johnsongrass were separately seeded and were allowed to germinate in a green house. When each plant grew to the stage of 2-3 leaves, emulsions formulated with concentration gradient from predetermined amounts of two test compounds of different kinds in a similar manner to the method described in Formulation Example 16 was diluted with water to a predetermined dilution rate and then sprayed at an application rate equal to 5 l per are onto the foliage of each plant by means of a pressure-operated ULV (ultra low volume) sprayer. Influence to the weeds were observed on the 40th day after the spray of the herbicides. The results are shown in Table 9, In the table, Ea have the same meanings as in Test 7, and Ea>Ec indicates the existence of synergistic action while Ea<Ec indicates the existence of antagonistic action.

The test system of the next assay is johnsongrass. The description is as above. As to conditions: Sorghum halepense, 960 h, applied alone, 40th day, read-out: Herbicidal effects Johnsongrass Ea; for pest or weed control at 100 g/ha: 1 g/a; for pest or weed control at 200 g/ha: 2 g/a. As to the method:
as §1

Structures are written as SMILES.

For the compound `COc1cc(OC)nc(Oc2ccccc2C=NOCC=Cc2ccccc2Br)n1` [compound 40], the pest or weed control at 300 g/ha with barnyardgrass came to 20%.

For `COc1cc(OC)nc(Oc2ccccc2C=NOCC=Cc2ccccc2C(F)(F)F)n1` [compound 32], the pest or weed control at 1000 g/ha in the assay on barnyardgrass stood at 50%.

On to `COc1cc(OC)nc(Oc2ccccc2C=NOC(C)C)n1` [compound 6], for which the pest or weed control at 1000 g/ha in the assay with barnyardgrass stood at 50%.

As for `COc1cc(OC)nc(Oc2ccccc2C=NO)n1` [Compound No. 24, 2-(4,6-dimethoxy-2-pyrimidinyloxy)-benzaloxime], the pest or weed control at 300 g/ha with barnyardgrass stood at 50%.

As to `COc1cc(OC)nc(Oc2ccccc2C=NOCC=Cc2ccccc2C)n1` [Compound No. 39], the pest or weed control at 300 g/ha in the assay on barnyardgrass was found to be 50%. In the assay on redroot pigweed, the pest or weed control at 100 g/ha is 10% and the pest or weed control at 200 g/ha worked out at 30%. Further, in the assay with johnsongrass, the pest or weed control at 100 g/ha was 10% and the pest or weed control at 200 g/ha came to 20%.

As for `C=C(Cl)CON=Cc1ccccc1Oc1nc(OC)cc(OC)n1` [Compound No. 14], the pest or weed control at 300 g/ha in the assay with barnyardgrass was found to be 85%.

In the case of `COc1cc(OC)nc(Oc2ccccc2C=NOCC=Cc2ccc(Cl)cc2)n1` [Compound No. 28], the pest or weed control at 300 g/ha in the assay on barnyardgrass was 50%.

As to `COc1cc(OC)nc(Oc2ccccc2C=NOCC=CCl)n1` [compound 11], the pest or weed control at 1000 g/ha in the assay with barnyardgrass was determined as 30%.

Consider `COc1cc(OC)nc(Oc2ccccc2C=NOC2CCCCC2)n1` [Compound No. 3], for which the pest or weed control at 1000 g/ha in the assay on barnyardgrass was determined as 40%.

Take `COc1cc(OC)nc(Oc2ccccc2C=NOCC=Cc2ccccc2Cl)n1` [Compound No. 27]: in the assay on barnyardgrass, the pest or weed control at 300 g/ha came out at 50%.

In the case of `COc1cc(OC)nc(Oc2ccccc2C=NOCc2cccc(C)c2)n1` [compound 20], the pest or weed control at 300 g/ha in the assay with barnyardgrass was determined as 30%.

On to `COc1cc(OC)nc(Oc2ccccc2C=NOCC=Cc2ccccc2)n1` [Compound No. 9], for which the pest or weed control at 300 g/ha in the assay on barnyardgrass was 50%. In the assay with redroot pigweed, the pest or weed control at 100 g/ha came out at 10% and the pest or weed control at 200 g/ha is 30%. Also, in the assay on johnsongrass, the pest or weed control at 100 g/ha amounted to 10% and the pest or weed control at 200 g/ha is 20%.

Turning to `COc1cc(OC)nc(Oc2ccccc2C=NOCC=Cc2cccc(C)c2)n1` [Compound No. 34, 0-(3-methylcinnamyl)-2-(4,6-dimethoxy-2-pyrimidinyloxy)benzaldoxime], in the assay with barnyardgrass, the pest or weed control at 300 g/ha was 30%.

Take `COc1cc(OC)nc(Oc2ccccc2C=NOCC#Cc2ccccc2)n1` [compound 42]: in the assay with barnyardgrass, the pest or weed control at 300 g/ha was found to be 50%.

For `COc1cc(OC)nc(Oc2ccccc2C=NOCC=C(C)C)n1` [Compound No. 7], the pest or weed control at 300 g/ha with barnyardgrass amounted to 30%. Also, the pest or weed control at 100 g/ha in the assay with redroot pigweed and in the assay with johnsongrass was 10% each time. Also, the figures for the pest or weed control at 200 g/ha in the assay with redroot pigweed and with johnsongrass were 50% and 20%, respectively.

On to `COc1cc(OC)nc(Oc2ccccc2C=NOCC=Cc2ccc(Cl)cc2Cl)n1` [compound 30], for which the pest or weed control at 300 g/ha in the assay on barnyardgrass came out at 40%.

For the compound `COc1cc(OC)nc(Oc2ccccc2C=NOCc2ccccc2)n1` [Compound No. 15], the pest or weed control at 1000 g/ha in the assay on barnyardgrass is 50%.

With `COc1cccc(C=CCON=Cc2ccccc2Oc2nc(OC)cc(OC)n2)c1` [compound 38], in the assay with barnyardgrass, the pest or weed control at 300 g/ha amounted to 50%.

On to `C#CCON=Cc1ccccc1Oc1nc(OC)cc(OC)n1` [Compound No. 13, 0-(2-propynyl)-2-(4,6-dimethoxy-2-pyrimidinyloxy)benzaldoxime], for which the pest or weed control at 1000 g/ha in the assay with barnyardgrass worked out at 70%. Moreover, in the assay with redroot pigweed, the pest or weed control at 100 g/ha amounted to 20% and the pest or weed control at 200 g/ha came out at 40%. Moreover, in the assay on johnsongrass, the pest or weed control at 100 g/ha was found to be 30% and the pest or weed control at 200 g/ha was 50%.

Turning to `CC#CCON=Cc1ccccc1Oc1nc(OC)cc(OC)n1` [compound 10], the pest or weed control at 1000 g/ha in the assay on barnyardgrass came out at 10%.
